In US5879902A, “Diagnostic methods and kits for the evaluation of the sympathetic nervous system function” (Neuro-Biotech Inc., priority 1997, dated 1999):
Where “and” joins values, the source holds several entries; their conditions need not be identical. Identical values can stand only once. Counter-ions that a name gives are not always drawn.

How the values were obtained:
Type in all cases: biochemical
dopamine-β-hydroxylase [1] = molecular target: T1, dopamine-β-hydroxylase (Homo sapiens, UniProt P09172); experiment: Specific DBH activity in unpurified human serum (octopamine formed from tyramine, spectrophotometric); details: for % Control (DBH activity with the named component omitted) / Activity (DBH enzyme activity with the named component omitted): named ingredient omitted from reaction mixture, pool of 25 normal human serum; for Activity (DBH enzyme activity with the named component omitted): 37° C., mean ± SEM of at least 10 determinations; for decrease in enzyme activity on omission of the component from the incubation medium: component omitted; for saturation point (concentration saturating the enzyme activity): 20 μL human serum, tyramine varied at 10 mM ascorbate, ascorbate varied at 20 mM tyramine; for apparent Vmax: pH 5.0, Woolf's graphical method
T1 sequence (P09172 40-617 limits assumed): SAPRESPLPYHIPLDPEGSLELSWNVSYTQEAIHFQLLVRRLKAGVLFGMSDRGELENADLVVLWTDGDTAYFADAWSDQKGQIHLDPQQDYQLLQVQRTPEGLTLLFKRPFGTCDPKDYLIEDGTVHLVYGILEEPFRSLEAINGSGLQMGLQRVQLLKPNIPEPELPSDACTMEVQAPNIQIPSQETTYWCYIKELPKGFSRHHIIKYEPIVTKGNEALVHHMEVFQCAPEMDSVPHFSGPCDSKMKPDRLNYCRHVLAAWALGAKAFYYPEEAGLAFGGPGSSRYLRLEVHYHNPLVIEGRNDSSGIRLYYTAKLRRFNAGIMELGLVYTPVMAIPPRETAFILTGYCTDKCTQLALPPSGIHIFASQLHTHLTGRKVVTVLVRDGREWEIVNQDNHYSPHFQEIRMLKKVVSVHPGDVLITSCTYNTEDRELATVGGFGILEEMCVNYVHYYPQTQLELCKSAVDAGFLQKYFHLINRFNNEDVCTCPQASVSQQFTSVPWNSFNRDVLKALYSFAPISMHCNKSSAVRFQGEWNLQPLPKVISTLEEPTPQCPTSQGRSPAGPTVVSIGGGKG
Experimental: (§1) The kinetic parameters and biochemical properties were done on a pool of 25 subjects randomly distributed between males and females. An appropriate aliquot of serum was taken as enzyme source and diluted in ice-cold deionized water to a final volume of 400 μL, prior the preincubation period. For individual measurements of DBH enzyme activity, 20 μL of human serum was routinely used. For the ultrafiltration method, an aliquot of a pool of serum was passed through a DIAFLO™ Ultrafilter membrane, type YM100, and 40 μL of the ultrafiltrate was used to measure the enzyme activity (FIG. 9).
The specific DBH activity was determined by the method described by Roberge and Charbonneau (Roberge AG et al., Nutr Res, 1985, 5:57-63). The preincubation mixture contained 0.2M sodium acetate buffer (pH 5), 15 mM N-ethylmaleimide (NEM) and the enzyme source (from the serum sample) and was carried out at 25° C. for 10 min in an atmosphere of air using a metabolic shaker (Dubnoff). To the preincubated enzymatic source were added to a final volume of 1 mL: 10 mM fumarate, […], 2500 units catalase and 1 mM pargyline, as monoamide oxidasae inhibitor. Blanks and internal standards were set up in the same manner and contained 20 mM octopamine instead of the enzyme source. The incubation was started with 20 mM tyramine and conducted at 37° C. for 30 min in an atmosphere of air using a metabolic shaker (Dubnoff). The reaction was stopped on ice by adding 300 μL of 3M trichloroacetic acid to each tube and immediately centrifuged at 2500 g of at 4° C. for 10 min. The supernatant was decanted on a DOWEX™ 50×4-400 resin column and the acid eluted with 3M NH4 OH. The octopamine formed was derived to p-hydroxybenzaldehyde by periodate cleavage which was isolated by successive solvent extractions with ether and ammonia. The last aqueous phase was assayed by a dual-wavelenght spectrophotometer (333-360 nm). Specific activity was expressed […] of octopamine formed per mL per min. Recovery of octopamine added to the blank incubation mixture was 90±2%. L-tyramine was used as substrate and an aliquot of unpurified serum was taken as the enzyme source, usually 20 μL.
Apparent Michaelis constant (Km) and apparent maximum velocity (Vmax) were determined following the Woolf's graphical procedure and the usual method of Lineweaver and Burk. Statistical estimation related to enzyme kinetics was done according to Wilkinson.

dopamine-β-hydroxylase [2] = molecular target: T1, dopamine-β-hydroxylase; experiment: DBH activity in ultrafiltrate of human serum (DIAFLO YM100 membrane); design: an aliquot of a pool of serum was passed through a DIAFLO™ Ultrafilter membrane, type YM100; from tissue; host or cells: ultrafiltrate of pooled human serum; details: with the named substance in the medium (15 mM NEM; copper up to 4 μM)
Experimental: as §1
(§2) The specific DBH activity was determined by the method described by Roberge and Charbonneau (Roberge AG et al., Nutr Res, 1985, 5:57-63). The preincubation mixture contained 0.2M sodium acetate buffer (pH 5), 15 mM N-ethylmaleimide (NEM) and the enzyme source (from the serum sample) and was carried out at 25° C. for 10 min in an atmosphere of air using a metabolic shaker (Dubnoff). To the preincubated enzymatic source were added to a final volume of 1 mL: 10 mM fumarate, […], 2500 units catalase and 1 mM pargyline, as monoamide oxidasae inhibitor. […]
The relationship between copper and NEM in the medium was studied in an aliquot of serum passed through a DIAFLO™ Ultrafilter membrane, type YM100, and the enzyme activity was measured in the ultrafiltrate. […]

dopamine-β-hydroxylase [3] = molecular target: T1, dopamine-β-hydroxylase; experiment: DBH activity in human EDTA-treated blood
Experimental: (§3) The specific DBH activity was determined by the method described by Roberge and Charbonneau (Roberge AG et al., Nutr Res, 1985, 5:57-63). The preincubation mixture contained 0.2M sodium acetate buffer (pH 5), 15 mM N-ethylmaleimide (NEM) and the enzyme source (from the serum sample) and was carried out at 25° C. for 10 min in an atmosphere of air using a metabolic shaker (Dubnoff). To the preincubated enzymatic source were added to a final volume of 1 mL: 10 mM fumarate, […], 2500 units catalase and 1 mM pargyline, as monoamide oxidasae inhibitor. Blanks and internal standards were set up in the same manner and contained 20 mM octopamine instead of the enzyme source. The incubation was started with 20 mM tyramine and conducted at 37° C. for 30 min in an atmosphere of air using a metabolic shaker (Dubnoff). The reaction was stopped on ice by adding 300 μL of 3M trichloroacetic acid to each tube and immediately centrifuged at 2500 g of at 4° C. for 10 min. […]
(§4) Apparent Michaelis constant (Km) and apparent maximum velocity (Vmax) were determined following the Woolf's graphical procedure and the usual method of Lineweaver and Burk. […]
(§5) In FIG. 7A, the specific DBH enzyme activity was measured in human blood treated with EDTA, a copper chelator, in respect to pH dependence, to copper content added in the incubation medium and to kinetic parameters. […]

[4] = substrate: NCCc1ccc(O)cc1; experiment: Specific DBH activity in unpurified human serum (octopamine formed from tyramine, spectrophotometric); details: other: human serum, pH 5.0, Woolf's graphical method
Experimental: as §1, §2, §4

[5] = substrate: NCCc1ccc(O)cc1; experiment: DBH activity in human EDTA-treated blood; details: other: EDTA-treated blood, pH 5.8, Lineweaver and Burk
Experimental: as §3, §4, §5

Molecule: O=C(O)/C=C/C(=O)O [Furnarate, disodium fumarate]
- % Control (DBH activity with the named component omitted) (dopamine-β-hydroxylase [1]): 88%
- Activity (DBH enzyme activity with the named component omitted) (dopamine-β-hydroxylase [1]): 47.5 ± 1.00 nmol of octopamine formed per mL per min
- increase in enzyme activity by addition of fumarate (dopamine-β-hydroxylase [1]; whatever the concentrations used, up to 40 mM): 12%

Molecule: CCN1C(=O)C=CC1=O [N-ethylmaleimide (NEM), N-ethylmaleimide]
- decrease in enzyme activity on omission of the component from the incubation medium (dopamine-β-hydroxylase [1]; human serum): 36% and 66%
- % Control (DBH activity with the named component omitted) (dopamine-β-hydroxylase [1]): 66%
- Activity (DBH enzyme activity with the named component omitted) (dopamine-β-hydroxylase [1]): 35.6 ± 0.39 nmol of octopamine formed per mL per min
- enzyme activity in ultrafiltrate (dopamine-β-hydroxylase [2]): 52±0.7 nmol of octopamine formed per mg of protein per hour

Molecule: O=C1O[C@H]([C@@H](O)CO)C(O)=C1O [ascorbate, ascorbic acid]
- saturation point (concentration saturating the enzyme activity) (dopamine-β-hydroxylase [1]): 10 mM
- decrease in enzyme activity on omission of the component from the incubation medium (dopamine-β-hydroxylase [1]; human serum): 96%
- Km value lower than for tyramine (fold) (dopamine-β-hydroxylase [1]; human serum): 10 times
- apparent Vmax (dopamine-β-hydroxylase [1]; human serum): 56 nmol of octopamine formed per mL per min
- % Control (DBH activity with the named component omitted) (dopamine-β-hydroxylase [1]): 4%
- Activity (DBH enzyme activity with the named component omitted) (dopamine-β-hydroxylase [1]): 2.2 ± 0.19 nmol of octopamine formed per mL per min

Molecule: [Cu] [copper]
- maximum decrease in enzyme activity (dopamine-β-hydroxylase [1]; 20 μM exogenous copper, with 15 mM NEM in the medium): 90%
- exogenous copper content above which enzyme activity decreases significantly (dopamine-β-hydroxylase [1]; with 15 mM NEM in the medium): higher than 2 μM
- exogenous copper concentration above which enzyme activity decreases significantly (dopamine-β-hydroxylase [1]; without NEM in the medium): higher than 4 μM
- effect of exogenous copper on EDTA inhibition (dopamine-β-hydroxylase [3]; copper from 0 to 100 μM in the medium): progressively reversed
- enzyme activity in ultrafiltrate (dopamine-β-hydroxylase [2]): 51±0.56 nmol of octopamine formed per mg of protein per hour

Molecule: NCCc1ccc(O)cc1 [tyramine, L-tyramine]
- saturation point (concentration saturating the enzyme activity) (dopamine-β-hydroxylase [1]): 20 mM
- apparent Vmax (dopamine-β-hydroxylase [1]; human serum): 72 nmol of octopamine formed per mL per min
- Vmax (dopamine-β-hydroxylase [3]; EDTA-treated blood, pH 5.8, Lineweaver and Burk): 38.5 nmol of octopamine formed per mL per min

B1: dopamine-β-hydroxylase (Homo sapiens) (protein)
chain: SAPRESPLPYHIPLDPEGSLELSWNVSYTQEAIHFQLLVRRLKAGVLFGMSDRGELENADLVVLWTDGDTAYFADAWSDQKGQIHLDPQQDYQLLQVQRTPEGLTLLFKRPFGTCDPKDYLIEDGTVHLVYGILEEPFRSLEAINGSGLQMGLQRVQLLKPNIPEPELPSDACTMEVQAPNIQIPSQETTYWCYIKELPKGFSRHHIIKYEPIVTKGNEALVHHMEVFQCAPEMDSVPHFSGPCDSKMKPDRLNYCRHVLAAWALGAKAFYYPEEAGLAFGGPGSSRYLRLEVHYHNPLVIEGRNDSSGIRLYYTAKLRRFNAGIMELGLVYTPVMAIPPRETAFILTGYCTDKCTQLALPPSGIHIFASQLHTHLTGRKVVTVLVRDGREWEIVNQDNHYSPHFQEIRMLKKVVSVHPGDVLITSCTYNTEDRELATVGGFGILEEMCVNYVHYYPQTQLELCKSAVDAGFLQKYFHLINRFNNEDVCTCPQASVSQQFTSVPWNSFNRDVLKALYSFAPISMHCNKSSAVRFQGEWNLQPLPKVISTLEEPTPQCPTSQGRSPAGPTVVSIGGGKG
notes: from tissue; host or cells: human serum, unpurified (pool of 25 subjects; also individual subjects)
- Km [4]: 8 mM
- Km [5]: 2.4 mM

B2: Catalase: beef liver catalase, added for peroxide degradation (protein, UniProt P00432 2-527, looked up)
Catalase: ADNRDPASDQMKHWKEQRAAQKPDVLTTGGGNPVGDKLNSLTVGPRGPLLVQDVVFTDEMAHFDRERIPERVVHAKGAGAFGYFEVTHDITRYSKAKVFEHIGKRTPIAVRFSTVAGESGSADTVRDPRGFAVKFYTEDGNWDLVGNNTPIFFIRDALLFPSFIHSQKRNPQTHLKDPDMVWDFWSLRPESLHQVSFLFSDRGIPDGHRHMNGYGSHTFKLVNANGEAVYCKFHYKTDQGIKNLSVEDAARLAHEDPDYGLRDLFNAIATGNYPSWTLYIQVMTFSEAEIFPFNPFDLTKVWPHGDYPLIPVGKLVLNRNPVNYFAEVEQLAFDPSNMPPGIEPSPDKMLQGRLFAYPDTHRHRLGPNYLQIPVNCPYRARVANYQRDGPMCMMDNQGGAPNYYPNSFSAPEHQPSALEHRTHFSGDVQRFNSANDDNVTQVRTFYLKVLNEEQRKRLCENIAGHLKDAQLFIQKKAVKNFSDVHPEYGSRIQALLDKYNEEKPKNAVHTYVQHGSHLSAREKANL
- catalase amount up to which enzyme activity increases (then plateau till 4000 units) (dopamine-β-hydroxylase [1]; human serum): 2000 units
- % Control (DBH activity with the named component omitted) (dopamine-β-hydroxylase [1]): 10%
- Activity (DBH enzyme activity with the named component omitted) (dopamine-β-hydroxylase [1]): 5.6 ± 0.45 nmol of octopamine formed per mL per min
